# Reference: patent publication US20020166134A1, “Cardiomyocytes with enhanced proliferative potenial, and methods for preparing and using same” (priority 1999, published 2002)
# Key:
# [1] = system: cardiomyocytes from the left atria of MHC-CYCD2 transgenic mice; experiment: Number of cardiomyocyte nuclei (kariokinesis) in left atrial cultures with isoproterenol; type: cell-based; settings: isoproterenol 1 μm, 72 hrs, left atria of day 14 MHC-CYCD2 mice, FIG. 5
# Description: Left atria from neonatal day 14 MHC-CYCD2 transgenic mice were harvested and digested in PBS (37° C., 60 min) containing 0.17% collagenase (Type I, Worthington Biochemical, Freehold N.J.). Cells were then triturated with a Pasteur pipette and plated at a density of 1×10^5 cells per chamber slide. Cells were cultured in DMEM supplemented with 10% FBS. In some cases, the media also contained isoproterenol (1 μm). After 72 hrs., the slides were fixed in gluteraldehyde-formaldehyde (1:1) and overlaid with 1 mg/ml X-GAL, 5 mM potassium ferricyanide, 5 mM potassium ferrocyanide and 2 mM magnesium chloride in PBS. The number of blue nuclei were counted directly on a microscope.
# [2] = Heart weight/body weight; type: in vivo, mice
# Description: A thymidine incorporation assay was used to determine if cardiomyocyte DNA synthesis persisted in adult transgenic MCH-CYCD2 animals. This testing also employed a second transgenic mouse line, designated MHC-nLAC. The MCH-nLAC mice express a nuclear localized β-galactosidase (βGAL) reporter gene exclusively in the cardiomyocytes (Soonpaa, M. H. et al., Science 264:98-101 (1994); Soonpaa, M. H. and L. J. Field, Am. J. Physiol. 272:H220-226 (1997)). Accurate cardiomyocyte tritiated thymidine labeling indices can be readily obtained with the MHC-nLAC animals simply by screening for co-localization of βGAL activity and silver grains in autoradiographs of 5-bromo-4-chloro-3-indolyl-B-D-galactoside (X-GAL) stained heart sections. To monitor the effect of cyclin D2 overexpression on cardiomyocyte DNA synthesis, MHC-CYCD2 mice were crossed with MHC-nLAC mice and animals carrying either the MHC-nLAC transgene alone or both transgenes were identified and sequestered. When the mice reached 11 weeks of age, they received a single injection of tritiated thymidine and were sacrificed four hours later. The hearts were removed, sectioned, stained with X-GAL and processed for autoradiography. […]
# [3] = system: cell cycle protein; experiment: Western blot analysis of cell cycle protein level changes in response to isoproterenol; type: in vivo, mice; set-up: key to Cyclin D2 protein level: higher numbers of the symbol “+” indicate higher levels of protein; the symbol “−” indicates none detected; settings: 7 days infusion
# Description: Western blots were used to analyze protein expression levels in adult MHC-CYCD2 mice and their non-transgenic litter mates. Hearts were homogenized in NP40 buffer (150 mM NaCl, 5 mM EDTA, 50 mM Tris-HCl pH 8.0, 1 μg/ml aprotinin, 1 μg/ml pepstatin, 1 μg/ml leupeptin, 50 μg/ml TLCK, 50 μg/ml PMSF, 100 μg/ml TPCK, 1% vol/vol Nonidet P-40). The homogenate was cleared by centrifugation at 40,000× g for 10 min, and the protein content of the supernatant was quantitated using a commercial assay (Bio-Rad, Richmond Calif.). Samples were separated by size on 10% polyacrylamide gels under denaturing conditions as described, and electro-blotted to nitrocellulose (Hoefer Scientific, San Francisco Calif.) membranes. The filters were stained with 0.1% naphthol blue-black in 45% methanol, 10% acetic acid to assess the efficiency of transfer. For Western analysis, nonspecific binding was blocked by incubation in block buffer (5% nonfat dry milk, 3% BSA, 0.1% Tween, 1×PBS) for 2 hr at room temperature. Commercial antibodies were used for each protein analyzed. Conditions (i.e. dilution, length of reaction, secondary antibody, etc) were according to the manufacturer's recommendations. The results are presented in Table 4 below, in which higher numbers of the symbol “+” indicate higher levels of protein, and the symbol “−” indicates none detected.
# Myocardial hypertrophy was induced by isoproterenol infusion with Alzet minipumps in adult MHC-CYCD2 mice and their non-transgenic siblings (minipump model 2001, Alzet, Palo Alto Calif.; flow rate of 1 μl/hr, 0.028 g/ml isoproterenol). Hearts were harvested after 7 days of isoproterenol infusion and processed for Western blot analysis using procedures as described in Example 4. Again, higher numbers of the symbol “+” indicate higher levels of protein, and the symbol “−” indicates none detected.
# [4] = system: cardiomyocytes; experiment: Tritiated thymidine incorporation assay of cardiomyocyte DNA synthesis (labeling index) in adult transgenic mice, with or without isoproterenol infusion; type: in vivo; settings: for Left Atrium cardiomyocyte labeling index / Right Atrium cardiomyocyte labeling index / Ventricle cardiomyocyte labeling index: isoproterenol infusion 7 days
# Description: A thymidine incorporation assay was used to determine if cardiomyocyte DNA synthesis persisted in adult transgenic MCH-CYCD2 animals. This testing also employed a second transgenic mouse line, designated MHC-nLAC. The MCH-nLAC mice express a nuclear localized β-galactosidase (βGAL) reporter gene exclusively in the cardiomyocytes (Soonpaa, M. H. et al., Science 264:98-101 (1994); Soonpaa, M. H. and L. J. Field, Am. J. Physiol. 272:H220-226 (1997)). Accurate cardiomyocyte tritiated thymidine labeling indices can be readily obtained with the MHC-nLAC animals simply by screening for co-localization of βGAL activity and silver grains in autoradiographs of 5-bromo-4-chloro-3-indolyl-B-D-galactoside (X-GAL) stained heart sections. To monitor the effect of cyclin D2 overexpression on cardiomyocyte DNA synthesis, MHC-CYCD2 mice were crossed with MHC-nLAC mice and animals carrying either the MHC-nLAC transgene alone or both transgenes were identified and sequestered. When the mice reached 11 weeks of age, they received a single injection of tritiated thymidine and were sacrificed four hours later. The hearts were removed, sectioned, stained with X-GAL and processed for autoradiography. […] In light of the sustained cardiomyocyte DNA synthesis observed in the adult MHC-CYCD2 mouse hearts, a series of experiments was initiated to ascertain how the transgenic myocardium would respond to cardiac hypertrophy. Osmotic mini-pumps (Model 2001, Alzet, Palo Alto, Calif., flow rate of 1 μl per hour) filled with saline or 0.028 g/ml isoproterenol in saline were implanted through a small longitudinal incision between the scapulae. 8 control mice (MHC-nLAC) and 8 cyclin D2 mice (MHC-nLAC/MHC-CYCD2 double transgenics) were used.
# Prior to sacrifice, the experimental and control mice received a bolus injection of tritiated thymidine to permit assessment of cardiomyocyte DNA synthesis. After a 4 hour chase, the animals were sacrificed, and the hearts were harvested, cryoprotected, sectioned, stained with X-GAL and subjected to autoradiography. Once again, cardiomyocyte DNA synthesis was measured by scoring the presence of silver grains over βGAL positive nuclei. […] Isoproterenol treatment had no effect on cardiomyocyte DNA synthesis in the non-cyclin expressing control group.
# Pulse chase experiments were employed to determine the fate of the cardiomyocytes synthesizing DNA. Once again, MHC-CYCD2 mice were crossed with MHC-nLAC mice. The MHC-nLAC mice express a nuclear localized β-GAL reporter exclusively in cardiomyocytes. Mice from this cross carrying either the MHC-nLAC transgene alone or both the MHC-nLAC and MHC-CYCD2 transgenes were identified and sequestered. At 11 weeks of age, myocardial hypertrophy was induced by isoproterenol infusion with Alzet minipumps (minipump model 2001, Alzet, Palo Alto Calif.; flow rate of 1 μl/hr, 0.028 g/ml isoproterenol). After 7 days of isoproterenol infusion, the control (MHC-nLAC) and experimental (MHC-nLAC/MHC-CYCD2 double transgenic) mice received a single injection of 3H-thymidine (200 uCi I.P. at 28 Ci/mM, Amersham, Arlington Heights, Ill.), and were sacrificed either 4 hours (pulse, FIG. 3A) or 72 hours (chase, FIG. 3B) later. The hearts were removed, cryoprotected in 30% sucrose, embedded and sectioned at 10 μm using standard histologic techniques. The sections were post-fixed in formaldehyde:glutaraldehyde (1:1) and overlaid with 1 mg/ml X-GAL, 5 mM potassium ferricyanide, 5 mM potassium ferrocyanide and 2 mM magnesium chloride in PBS. The sections were counter-stained with DAPI, and washed three times in PBS. After drying, stained slides were coated with photographic emulsion (Ilford L.4, Polysciences, Warrington Pa.) diluted 1:1 with water, drained, and placed in a light-tight box for four days at 4° C. Slides were then developed in Kodak D-19 (Rochester N.Y.) for four minutes, washed in water, and fixed in 30% sodium thiosulfate for at least four minutes. […]
# [5] = Control mice, isoproterenol treated 7 days
# [6] = MHC-CYCD2 mice, listed as Isoproterenol
structure (smiles),measurement,setting,value
CC(C)NCC(O)c1ccc(O)c(O)c1 (centres unmarked) [isoproterenol],number of cardiomyocyte nuclei in the culture,[1],substantial increase
same,increase in heart weight/body weight,"[2]; control mice, isoproterenol vs saline treated animals",28%
same,increase in heart weight/body weight,"[2]; cyclin expressing mice, continuous isoproterenol 7 days",47.6%
same,CDC2 protein level,[3]; NonTransgenic (+Iso),+ +
same,Cyclin D2 protein level,[3]; NonTransgenic (+Iso),+
same,PCNA protein level,[3]; NonTransgenic (+Iso),+ +
same,CDC2 protein level,[3]; Transgenic (+Iso),+ + + +
same,Cyclin D2 protein level,[3]; Transgenic (+Iso),+ + + + +
same,PCNA protein level,[3]; Transgenic (+Iso),+ + + +
same,Left Atrium cardiomyocyte labeling index,[4]; Control (MHC-nLAC) mice,0%
same,Right Atrium cardiomyocyte labeling index,[4]; Control (MHC-nLAC) mice,0%
same,Ventricle cardiomyocyte labeling index,[4]; Control (MHC-nLAC) mice,0%
same,Left Atrial DNA Synth. (%) Iso(7 days),[4]; [5],0.00%
same,Ventricular DNA Synth. (%) Iso(7 days),[4]; [5],0.00%
same,Left Atrium cardiomyocyte labeling index,[4]; MHC-CYCD2 mice,7.28%
same,Ventricle cardiomyocyte labeling index,[4]; MHC-CYCD2 mice,moderately decreased
same,Left Atrium cardiomyocyte labeling index,[4]; [6],7.28%
same,Right Atrium cardiomyocyte labeling index,[4]; [6],0.29%
same,Ventricle cardiomyocyte labeling index,[4]; [6],0.11%
same,effect on cardiomyocyte DNA synthesis,"[4]; non-cyclin expressing control group, isoproterenol treatment",no effect
